Data: patent US20110124589A1, “INHALED FOSFOMYCIN/TOBRAMYCIN FOR THE TREATMENT OF CHRONIC OBSTRUCTIVE PULMONARY DISEASE” (Gilead Sciences, Inc., priority 2009, published 2011)
In brackets after ≈: the same amount, converted by molar mass. Like-named read-outs stand apart in the source and are kept apart here.

Assays:
[1] = test system: P. aeruginosa C177; test: Rat bacterial pneumonia model
Protocol: Animals were handled according to the guidelines for the Care and use of Laboratory Animals. […] All animal protocols were approved by an IRB/Ethics Committee. Male Sprague-Dawley rats (180-200 g) were obtained from Charles River Laboratories (Hollister, Calif., USA) and acclimatized for 5 days prior to use. Animals were housed individually in ventilated cages, fed Purina Lab Diet ad libitum and allowed free access to water.
Antibiotic efficacy was determined using a rat bacterial pneumonia model. […] Rats were anaesthetized with isoflurane, and ˜10^3 cfu of P. aeruginosa C177 in 2% agar solution were instilled into the lungs with an oral gavage needle. The inoculum was deposited at the first bifurcation and distributed throughout the lungs by inspiration. Animals were allowed to recover for 18 hr post-infection. Each experiment consisted of pre-treatment (n=5-7), saline control with isoflurane, and 100 μL of antibiotic solution or saline was instilled in the trachea using a Microsprayer™ (Penn-Century In., Philadelphia, Pa., USA). Antibiotics were administered intratracheally twice daily for 3 days.
Animals were euthanized by intraperitoneal administration of sodium pentobarbital. The pre-treatment control group was harvested 18 hr post-infection, and the saline and treatment groups 18 hr after the last antibiotic exposure. Lungs were removed aseptically, homogenized in sterile normal saline and viable bacteria determined by the colony count method. Statistical differences between the saline control group and treatment groups were evaluated by the Mann-Whitney Rank Sum Test using GraphPad Prism® software package version 3.03 (GraphPad Software, Inc., San Diego, Calif., USA).

[2] = test system: H. influenzae; details: 16 isolates; agar dilution; cited from earlier work
[3] = test system: S. aureus; test: MIC of recent clinical isolates, agar dilution (CMI study); format: cell-based; details: Staphylococcus aureus
[4] = test system: S. pyogenes; details: 5 isolates; broth microdilution; cited from earlier work
[5] = test system: Klebsiella spp.; details: 22 isolates; broth microdilution; cited from earlier work
[6] = test system: H. influenzae; details: cited from earlier work; for Range of MBC/MIC: 6 strains
[7] = test system: E. coli; details: cited from earlier work; for Range of MBC/MIC: 10 strains
[8] = test system: S. aureus; test: MIC, agar-plate dilution (Method A)
Protocol: (§1) The efficacy of antibiotics and antibiotic combinations against Gram-positive and Gram-negative bacteria representative of species that cause respiratory infections were evaluated in MIC assays. […] H. influenzae, M. catarrhalis, and S. aureus, were isolated from respiratory tract infections. E. coli ATCC 25922, P. aeruginosa ATCC 27853, and S. aureus ATCC 29213 were used as quality control stains.
(§2) Method A: The MICs of fosfomycin alone, tobramycin alone, or combinations of fosfomycin plus tobramycin were determined by the agar-plate dilution method according to NCCLS guidelines (NCCLS, 2003). Bacterial strains were streaked onto Trypic Soy Agar plates (PML Microbiologicals, Wilsonville, Oreg.) containing 5% defibrinated sheep blood (hereafter referred to as blood agar plates) and incubated overnight at 35° C. Two to three bacterial colonies from the overnight cultures were inoculated into 3 mL of sterile normal saline, vortexed briefly, and adjusted to a 0.5 McFarland standard (NCCLS, 2003). The bacterial suspension was diluted 1:40 in sterile normal saline and served as the inoculum. Mueller-Hinton agar plates (hereafter referred to as MHA) were prepared by combining 16 g of agarose (Becton-Dickinson, Sparks, Md.), 22 g of Mueller-Hinton broth powder (Becton-Dickinson, Sparks, Md.), and adjusted to 1 L with distilled water. The agar was sterilized by autoclaving, cooled to 55° C., and supplemented with 25 μg/mL of glucose-6-phosphate (Sigma-Aldrich, St. Louis, Mo.). Twenty-five mL of cooled agar was aliquoted into 50 mL conical tubes and supplemented with appropriate concentrations of antibiotic to achieve concentrations ranging from 0.06 μg/mL to 512 μg/mL. After gently mixing the agar and antibiotic, the suspension was poured into sterile 100 mm petri dishes and allowed to solidify at room temperature. The antibiotic agar plates were inoculated with approximately 2×10^4 CFU/spot with a 48-point inoculator (Sigma-Aldrich, St. Louis, Mo.). The MIC was defined as the lowest concentration of antibiotic (s) that prevented visible growth after incubation for 18-20 hours at 35° C.

[9] = test system: M. catarrhalis; test: MIC of recent clinical isolates, agar dilution (CMI study); format: cell-based; details: Moraxella catarrhalis; 103 isolates
[10] = test system: S. pneumoniae; test: MIC, agar-plate dilution (Method A); details: Streptococcus pneumoniae
Protocol: as §1, §2

[11] = test system: S. pneumoniae; details: 8 isolates; agar dilution; cited from earlier work
[12] = test system: B. cepacia complex; details: 20 isolates; agar dilution; cited from earlier work
[13] = test system: H. influenzae; test: MIC of recent clinical isolates, agar dilution (CMI study); format: cell-based; details: Haemophilus influenzae
[14] = test system: P. aeruginosa; details: agar dilution, cited from earlier work
[15] = test system: P. aeruginosa ATCC 27853; test: MBC/MIC, broth microdilution
Protocol: The MBCs of fosfomycin and tobramycin alone for P. aeruginosa ATCC 27853, E. coli ATCC 25922, and S. aureus ATCC 29213 were determined by the broth microdilution method according to NCCLS standards (NCCLS, 1999). […] Bacterial strains were streaked onto blood agar plates and incubated at 35° C. for 18-24 hours. Two to three bacterial colonies from the overnight cultures were inoculated into 3 mL of sterile normal saline, vortexed briefly, and adjusted to a 0.5 McFarland standard (NCCLS, 2003). Fifty microliters of bacterial inoculum (approximately 2×10^5 CFU/mL) was pipeted into individual wells of 96-well plates containing 50 μl of CAMHB (Remel, Lenexa, Kanas) supplemented with 2-fold dilutions of antibiotics ranging in concentration from 0.125 μg/mL to 128 μg/mL. […] The contents of wells showing no growth (MIC and above) were mixed with a pipetor and duplicate 10 μl samples spread onto blood agar plates. Culture plates were incubated at 35° C. for 18-24 hours and the number of bacterial colonies on each plate enumerated manually. Rejection values were determined by NCCLS methods which considers the final inoculum size, single or double sampling, pipetting error, and the Poisson distributuion of sample responses (NCCLS, 1999). […] The MBC/MIC ratios were calculated by dividing the MBC by the MIC.

[16] = test system: P. aeuriginosa; test: Dose-response time-kill studies in 2% mucin; format: cell-based; details: for bactericidal or bacteriostatic / time-dependent or concentration-dependent killing: 2% mucin (FIGS. 4-6)
[17] = test system: S. pneumoniae; test: MIC of recent clinical isolates, agar dilution (CMI study); format: cell-based
[18] = test system: Klebsiella spp.; details: cited from earlier work; for Range of MBC/MIC: 5 strains
[19] = test system: P. aeruginosa ATCC 27853; test: Time-kill experiments in 2% porcine gastric mucin; format: cell-based; details: 2% mucin; for activity at 24 hours in time-kill curves (FIG. 2): 12.8 μg/mL fosfomycin, 3.2 μg/mL tobramycin, or both; for killing activity in time-kill curves (FIG. 2): 4×MIC: 12.8 μg/mL fosfomycin + 3.2 μg/mL tobramycin vs the components alone; for killing activity in time-kill curves (FIG. 1): 9:1 combination (fosfomycin 14.4 μg/mL + tobramycin 1.6 μg/mL) vs the components alone
Protocol: These studies were previously reported in PCT Publication no. WO2005/110022 to Gilead Sciences, Inc. (formerly Carus Pharma). Two to three bacterial colonies were inoculated into 10 mL CAMHB and incubated at 35° C. in a shaking water bath (250 rpm) for 18-24 hours. A 1:40 dilution of the overnight culture was made in 10 mL of fresh CAMHB and incubated at 35° C. in a shaking water bath (250 rpm) for 1-2 hours. […] Ten milliliter aliquots were then pipeted into 50 mL conical tubes. […] The killing activity of fosfomycin plus tobramycin was also compared to the killing activity of the individual components. […] A no drug control was conducted in each experiment. […] Bacterial killing was determined at 0, 1, 2, 4, 6, and 24 hours by making 10-fold serial dilutions of the cultures in sterile normal saline, and spreading 100 μl aliquots on blood agar plates. […] The limit of detection for the colony counting method was 1 Log10. Time-kill curves were constructed by plotting the Log10 number of CFU/mL culture versus time.

[20] = test system: P. aeruginosa; test: MIC, agar-plate dilution with 2% porcine gastric mucin (Method B); format: cell-based; details: Pseudomonas aeruginosa; 100 P. aeruginosa strains from cystic fibrosis lung sputum; 2% mucin
Protocol: Bacterial strains were streaked onto […] […] Louis, Mo.). […] Louis, Mo.). […] Methodologies were identical to that described in Method A above, with the exception that 2% (weight/volume) porcine gastric mucin (Sigma Chemical Co., St. Louis, Mo.) was added to the MHA prior to autoclaving.

[21] = Sputum drug concentrations following aerosolization of FTI; format: in vivo, human; details: for sputum concentration range for patient type and dose: both FTI doses, CF and bronchiectasis patients; for Cmax: human, sputum, inhaled
Protocol: In order to assess the amount of drug delivered to the respiratory track, drug concentration was measured in expectorated sputum for patients with CF or bronchiectasis. The fosfomycin and tobramycin range for patient type and dose was 1751-2974 μg/g and 326-881 μg/g, respectively.

[22] = test system: M. catarrhalis; details: 5 isolates; agar dilution; cited from earlier work
[23] = test system: S. aureus; details: cited from earlier work; for Range of MBC/MIC: 10 strains
[24] = test system: H. influenzae; test: MIC, agar-plate dilution (Method A)
Protocol: as §1, §2

[25] = Penicillin resistant, 32 isolates
[26] = Streptococcus pneumoniae, Penicillin resistant, 32 isolates
[27] = Streptococcus pneumoniae, penicillin suscept., 39 isolates
[28] = Streptococcus pneumoniae, penicillin suscept., 39 isolates, read-out: MIC50
[29] = 20 mg, patients with Bronchiectasis, aerosolized 80:20 mg FTI
[30] = 20 mg, patients with Cystic Fibrosis, aerosolized 80:20 mg FTI
[31] = 40 mg, patients with Bronchiectasis, aerosolized 160:40 mg FTI
[32] = 40 mg, patients with Cystic Fibrosis, aerosolized 160:40 mg FTI

SMILES: C[C@@H]1O[C@@H]1P(=O)(O)O [Fosfomycin]
- reduction in cfu/lung ([1]; =10 mg/kg intratracheally (FIG. 12)): not observed
- MIC50 [2]: 0.5 µg/mL (≈ 3.62 µM)
- MIC90 [2]: 2 µg/mL (≈ 14.5 µM)
- MIC range [2]: 0.25 to 4 µg/mL
- MIC50 ([3]; MRSA, 103 isolates): 4 µg/mL
- MIC90 ([3]; MRSA, 103 isolates): 8 µg/mL
- MIC50 ([3]; MSSA, 104 isolates): 4 µg/mL
- MIC90 ([3]; MSSA, 104 isolates): 4 µg/mL
- MIC range [4]: 16 to 64 µg/mL
- MIC50 [5]: 4 µg/mL (≈ 29 µM)
- MIC90 [5]: 16 µg/mL (≈ 116 µM)
- MIC range [5]: 0.5-16^ mg/L
- Range of MBC/MIC [6]: 1-8
- strains against which bactericidal [6]: 83%
- Range of MBC/MIC [7]: 1-8
- strains against which bactericidal [7]: 90%
- MIC ([8]; Staphylococcus aureus): 2 µg/mL (≈ 14.5 µM)
- MIC ([8]; Staphylococcus aureus, MRSA): 4 µg/mL (≈ 29 µM)
- MIC ([8]; Staphylococcus aureus, MSSA): 1 µg/mL (≈ 7.24 µM)
- MIC ([8]; strain COR-060 (GISA)): 2 µg/mL (≈ 14.5 µM)
- MIC50 [9]: 8 µg/mL
- MIC90 [9]: 16 µg/mL
- MIC ([10]; strain COR-061): 32 µg/mL (≈ 232 µM)
- MIC ([10]; strain COR-068): 8 µg/mL (≈ 57.9 µM)
- MIC range [11]: 8 to 32 µg/mL
- MIC50 [12]: >512 µg/mL
- MIC90 [12]: >512 µg/mL
- MIC50 ([13]; β-lactamase neg, 62 isolates): 0.25 µg/mL
- MIC90 ([13]; β-lactamase neg, 62 isolates): 8 µg/mL
- MIC50 ([13]; β-lactamase pos, 39 isolates): 0.5 µg/mL
- MIC90 ([13]; β-lactamase pos, 39 isolates): 2 µg/mL
- MIC50 ([14]; CF, 100 isolates): 64 µg/mL (≈ 464 µM)
- MIC90 ([14]; CF, 100 isolates): 512 µg/mL (≈ 3710 µM)
- MIC50 ([14]; non-CF, 60 isolates): 32 µg/mL (≈ 232 µM)
- MIC90 ([14]; non-CF, 60 isolates): 128 µg/mL (≈ 927 µM)
- MBC/MIC [15]: =8
- bactericidal or bacteriostatic [16]: bacteriostatic
- time-dependent or concentration-dependent killing [16]: time-dependent killing
- MIC50 [17, 25]: 16 µg/mL
- MIC90 [17, 26]: 32 µg/mL
- MIC90 [17, 27]: 16 µg/mL
- MIC50 [17, 28]: 16 µg/mL
- Range of MBC/MIC [18]: 1-4
- strains against which bactericidal [18]: 100%
- activity at 24 hours in time-kill curves (FIG. 2) [19]: re-growth was observed
- killing activity in time-kill curves (FIG. 2) [19]: bacteriostatic activity
- killing activity in time-kill curves (FIG. 1) [19]: bacteriostatic killing
- MIC50 [20]: 64 µg/mL (≈ 464 µM)
- MIC90 [20]: 128 µg/mL (≈ 927 µM)
- sputum concentration range for patient type and dose [21]: 1751 to 2974 µg/g
- Cmax [21, 29]: 1.75e+06 ng/g
- Cmax [21, 30]: 2.07e+06 ng/g
- Cmax [21, 31]: 1.98e+06 ng/g
- Cmax [21, 32]: 2.97e+06 ng/g
- MIC range [22]: 4 to 16 µg/mL
- Range of MBC/MIC [23]: 1-8
- strains against which bactericidal [23]: 80%
- MIC ([24]; Haemophilus influenzae): 8 µg/mL (≈ 57.9 µM)
- MIC ([24]; Haemophilus influenzae, strain COR-049): 128 µg/mL (≈ 927 µM)

SMILES: NC[C@H]1O[C@H](O[C@H]2[C@H](O)[C@@H](O[C@H]3O[C@H](CO)[C@@H](O)[C@H](N)[C@H]3O)[C@H](N)C[C@@H]2N)[C@H](N)C[C@@H]1O [Tobramycin]
- reduction in lung burden ([1]; 1 mg/kg of tobramycin alone (FIG. 11)): ~500 fold
- bacterial killing in rat lung ([1]; 2.5 mg/kg intratracheally twice daily for 3 days (FIG. 11)): 3 Log10
- eradication of P. aeruginosa infection ([1]; doses higher than 3 mg/kg intratracheally): complete eradication
- bacterial killing in rat lung ([1]; doses=0.5 mg/kg intratracheally): did not result in bacterial killing
- MIC50 [2]: 1 µg/mL (≈ 2.14 µM)
- MIC90 [2]: 1 µg/mL (≈ 2.14 µM)
- MIC range [2]: 0.5 to 1 µg/mL
- MIC50 ([3]; MRSA, 103 isolates): 0.5 µg/mL
- MIC90 ([3]; MRSA, 103 isolates): > 32 µg/mL
- MIC50 ([3]; MSSA, 104 isolates): 0.25 µg/mL
- MIC90 ([3]; MSSA, 104 isolates): 0.5 µg/mL
- MIC range [4]: 16 to 64 µg/mL
- MIC50 [5]: 0.13 µg/mL (≈ 0.278 µM)
- MIC90 [5]: 16 µg/mL (≈ 34.2 µM)
- Range of MBC/MIC [6]: 1-2
- strains against which bactericidal [6]: 100%
- Range of MBC/MIC [7]: 1-4
- strains against which bactericidal [7]: 100%
- MIC ([8]; Staphylococcus aureus): 64 µg/mL (≈ 137 µM)
- MIC ([8]; Staphylococcus aureus, MRSA): 0.25 µg/mL (≈ 0.535 µM)
- MIC ([8]; Staphylococcus aureus, MSSA): 0.25 µg/mL (≈ 0.535 µM)
- MIC ([8]; Staphylococcus aureus, strain COR-059): 128 µg/mL (≈ 274 µM)
- MIC50 [9]: 0.12 µg/mL
- MIC90 [9]: 0.25 µg/mL
- MIC ([10]; strain COR-061): 64 µg/mL (≈ 137 µM)
- MIC ([10]; strain COR-068): 16 µg/mL (≈ 34.2 µM)
- MIC range [11]: 16 to 64 µg/mL
- MIC50 [12]: 64 µg/mL (≈ 137 µM)
- MIC90 [12]: 512 µg/mL (≈ 1100 µM)
- MIC50 ([13]; β-lactamase neg, 62 isolates): 4 µg/mL
- MIC90 ([13]; β-lactamase neg, 62 isolates): 8 µg/mL
- MIC50 ([13]; β-lactamase pos, 39 isolates): 4 µg/mL
- MIC90 ([13]; β-lactamase pos, 39 isolates): 4 µg/mL
- MIC50 ([14]; CF, 100 isolates): 2 µg/mL (≈ 4.28 µM)
- MIC90 ([14]; CF, 100 isolates): 16 µg/mL (≈ 34.2 µM)
- MIC50 ([14]; non-CF, 60 isolates): 1 µg/mL (≈ 2.14 µM)
- MIC90 ([14]; non-CF, 60 isolates): 128 µg/mL (≈ 274 µM)
- MBC/MIC [15]: 1
- bactericidal or bacteriostatic [16]: rapidly bactericidal
- time-dependent or concentration-dependent killing [16]: concentration-dependent killing
- re-growth within 24 hours ([16]; 2% mucin (FIGS. 5-6)): re-growth occurred within 24 hours
- MIC50 [17, 25]: 32 µg/mL
- MIC90 [17, 26]: > 32 µg/mL
- MIC90 [17, 27]: > 32 µg/mL
- MIC50 [17, 28]: 32 µg/mL
- Range of MBC/MIC [18]: 1-4
- strains against which bactericidal [18]: 100%
- activity at 24 hours in time-kill curves (FIG. 2) [19]: re-growth was observed
- killing activity in time-kill curves (FIG. 2) [19]: bacteriostatic activity
- killing activity in time-kill curves (FIG. 1) [19]: bacteriostatic killing
- MIC50 [20]: 16 µg/mL (≈ 34.2 µM)
- MIC90 [20]: 64 µg/mL (≈ 137 µM)
- sputum concentration range for patient type and dose [21]: 326 to 881 µg/g
- Cmax [21, 29]: 326000 ng/g
- Cmax [21, 30]: 580000 ng/g
- Cmax [21, 31]: 587000 ng/g
- Cmax [21, 32]: 881000 ng/g
- MIC range [22]: 0.5 to 1 µg/mL
- Range of MBC/MIC [23]: 1-2
- strains against which bactericidal [23]: 100%
- MIC ([24]; Haemophilus influenzae): 0.5 µg/mL (≈ 1.07 µM)
- MIC ([24]; strain COR-049): 0.5 µg/mL (≈ 1.07 µM)
